The Ki is the dissociation constant of the complex between target and ligand, obtained from inhibition or displacement. Lower therefore signals a stronger hold on the target.

Experimental findings from patent US5750550A, “2-(pyrazol-5-yl-oxymethyl)-1,2-benzisothiazol-3 (2H)-One 1, 1-dioxides and compositions and method of use thereof” (Sanofi, priority 1995, dated 1998) are described below.

The target of this test is T1, human leukocyte elastase (Homo sapiens, UniProt P08246).
T1 sequence (P08246 30-267): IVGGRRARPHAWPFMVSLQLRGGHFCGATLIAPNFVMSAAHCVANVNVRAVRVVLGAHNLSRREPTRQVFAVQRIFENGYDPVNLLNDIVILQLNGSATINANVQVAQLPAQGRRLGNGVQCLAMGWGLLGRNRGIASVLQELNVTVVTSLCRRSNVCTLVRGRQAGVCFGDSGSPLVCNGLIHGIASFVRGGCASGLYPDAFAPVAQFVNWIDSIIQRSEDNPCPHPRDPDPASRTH
Kind of test: human leukocyte elastase (HLE) inhibitory activity, substrate MeOSuc-Ala-Ala-Pro-Val-pNA. The test is classed as biochemical. As to conditions: pH 7.8, 25° C., steady-state velocities. As for the experimental part: The test compound (inhibitor) is dissolved in DMSO in a vial to produce an inhibitor stock solution which has a concentration in the range of 200-1000 μM. The inhibitor stock solution is diluted (1:4, 1:16 and 1:64) into assay vials (vials 1, 2 and 3 respectively) containing 2.4 mL of buffer solution (50 mM N-[2-hydroxyethyl] piperazine-N'-[2-ethanesulfonic acid]/NaOH, 500 mM NaCl, pH 7.8 at 25° C.) and DMSO is added so that the total volume in each vial is 3.2 mL. 70 μL, 50 μL, 35 μL and 25 μL of inhibitor from assay vial 1 is placed into the first four wells of a 96-well microtiter plate and each well is made up to 90 μL total volume with the addition of a 25% DMSO/buffer solution. The inhibitor from assay vials 2 and 3 is processed in a similar manner and placed in wells 5-12 respectively to afford a total of 12 different inhibitor concentrations. Four wells (wells 13-16) containing 90 μL of the 25% DMSO/buffer solution but no inhibitor are also run simultaneously with the inhibited wells as a control. 150 μL of substrate solution (prepared by the addition of 500 μL of the human leukocyte elastase (HLE) substrate MeOSuc-Ala-Ala-Pro-Val-pNA (18.7 mM in DMSO) to 19.5 mL of buffer solution) is then added simultaneously into each of the 16 wells and the solution in each well was thoroughly mixed.
The 96-well microtiter plate is placed into a Microplate Reader #89815A spectrophotometer and 110 μL of the enzyme solution (prepared as follows: a mixture of 20 mL of buffer solution and 20 mg of bovine serum albumen is gently vortexed in a scintillation vial and 5 μL HLE stock solution (1 mg/mL dissolved in deionized water) is added) is added simultaneously to each of the 16 wells. Each of the solutions in the wells is throughly mixed and then the time-dependent absorbance data is collected at an absorbance of 410 nm until the assay is complete. It should be noted that although this assay method can be done manually, it is preferred to perform the assay robotically using a Hewlett Packard MicroAssay System Robot. the absorbance versus time data thus obtained affords curves the final slope of which is equal to the final steady-statevelocities (VF). Using the program ENZFITTER (Elsevier software), the progress curves for the four control assays ([I]=0 are fit by linear regression to yield the enzyme reaction velocity values in the absences of inhibitor (Vo) which are averaged to produce a single fixed value. The inhibition constant Ki (nM) is then obtained from a plot of [formula] which affords a linear plot wherein: [formula] and [S] is the concentration of the substrate and Km is the Michaelis constant.
Table I summarizes the results obtained from the testing of compounds of the invention for human leukocyte elastase inhibitory activity.
`COc1cc(C(C)C)c2c(c1)S(=O)(=O)N(COc1cc(C(F)(F)F)nn1-c1cccc(C(F)(F)F)n1)C2=O` [36 (b), 4-isopropyl-6-methoxy-2-[1-(6-trifluoromethyl-2-pyridyl)-3-trifluoromethylpyrazol-5-yl-oxymethyl]-1,2-benzisothiazol-3(2H)-one 1,1-dioxide]: the Ki was 0.029 nM.
`CC(C)c1cc(OCCCCCC(=O)O)cc2c1C(=O)N(COc1cc(C(F)(F)F)nn1-c1ccccc1)S2(=O)=O` [37 (f), 4-isopropyl-6-[5-(carboxy)-enthyloxy]-2-(1-phenyl-3-trifluoromethylpyrazol-5-yl-oxymethyl)-1,2-benzisothiazol-3(2H)-one 1,1-dioxide]: the inhibition constant (Ki) was 0.081 nM.
To `CC(C)c1cc(OCCC(C)(C)C(=O)O)cc2c1C(=O)N(COc1cc(C(F)(F)F)nn1-c1ccccc1)S2(=O)=O` [38 (d)] belongs 0.18 nM.
Compound `CC(C)c1cc(O)cc2c1C(=O)N(COc1cc(C(F)(F)F)nn1-c1ccc(Cl)cc1)S2(=O)=O` [39 (a), 4-isopropyl-6-hydroxy-2-[1-(4-chlorophenyl)-3-trifluoromethylpyrazol-5-yl-oxymethyl]-1,2-benzisothiazol-3(2H)-one 1,1-dioxide] yielded an inhibitory constant (Ki) of 1.9 nM.
Consider `CC(C)c1cc(OCCCC(=O)O)cc2c1C(=O)N(COc1cc(C(F)(F)F)nn1-c1ccc(Cl)cc1)S2(=O)=O` [39 (c), 4-isopropyl-6-[3-(carboxy)propoxy]-2-[1-(4-chlorophenyl)-3-trifluoromethylpyrazol-5-yl-oxymethyl]-1,2-benzisothiazol-3(2H)-one 1,1-dioxide], for which affinity was put at a Ki of 0.074 nM.
The compound `COc1ccc(COC(=O)c2ccc(COc3cc(C(C)C)c4c(c3)S(=O)(=O)N(COc3cc(C(F)(F)F)nn3-c3ccccc3)C4=O)o2)cc1` [42 (b)] gave a Ki of 0.081 nM.
The compound `COc1cc(C(C)C)c2c(c1)S(=O)(=O)N(COc1cc(C(F)(F)F)nn1-c1ncccc1C)C2=O` [45 (b), 4-isopropyl-6-methoxy-2-[1-(3-methyl-2-pyridyl)-3-trifluoromethylpyrazol-5-yl-oxymethyl]-1,2-benzisothiazol-3(2H)-one 1,1-dioxide] had a Ki of 0.061 nM.
To `COc1cc(C(C)C)c2c(c1)S(=O)(=O)N(COc1cc(C#N)nn1-c1ccc(Cl)cc1Cl)C2=O` [50 (b), 4-isopropyl-6-methoxy-2-[1-(2,4-dichlorophenyl)-3-cyanopyrazol-5-yl-oxymethyl]-1,2-benzisothiazol-3(2H)-one 1,1-dioxide] belongs 0.058 nM.
Compound `COc1cc(C(C)C)c2c(c1)S(=O)(=O)N(COc1cc(C(F)(F)F)nn1-c1cccc(Cl)c1)C2=O` [51 (b), 4-isopropyl-6-methoxy-2-[1-(3-chlorophenyl)-3-trifluoromethylpyrazol-5-yl-oxymethyl]-1,2-benzisothiazol-3(2H)-one 1,1-dioxide] showed a Ki of 0.13 nM. Compared with the last compound, the Ki is about 2.2-fold higher.
`COc1cc(C(C)C)c2c(c1)S(=O)(=O)N(COc1cc(Br)nn1-c1ccccc1)C2=O` [52 (b), 4-isopropyl-6-methoxy-2-[1-phenyl-3-bromopyrazol-5-yl-oxymethyl]-1,2-benzisothiazol-3(2H)-one 1,1-dioxide] came in with a Ki of 0.066 nM.
Compound `COc1cc(C(C)C)c2c(c1)S(=O)(=O)N(COc1cc(C)nn1C)C2=O` [Example 1, 4-isopropyl-6-methoxy-2-(1,3-dimethylpyrazol-5-yl-oxymethyl)-1,2-benzisothiazol-3(2H)-one 1,1-dioxide] returned a Ki of 0.73 nM.
As for `COc1cc(C(C)C)c2c(c1)S(=O)(=O)N(COc1cc(C(F)(F)F)nn1-c1ccccc1)C2=O` [Example 3, 4-isopropyl-6-methoxy-2-(1-phenyl-3-trifluoromethylpyrazol-5-yl-oxymethyl)-1,2-benzisothiazol-3(2H)-one 1,1-dioxide], the inhibitory constant (Ki) is 0.068 nM.
`COc1cc(C(C)C)c2c(c1)S(=O)(=O)N(COc1cc(C)nn1-c1ccc([N+](=O)[O-])cc1)C2=O` [Example 7, 4-isopropyl-6-methoxy-2-[1-(p-nitrophenyl)-3-methylpyrazol-5-yl-oxymethyl]-1,2-benzisothiazol-3(2H)-one 1,1-dioxide] showed an inhibitory constant (Ki) of 0.076 nM.
`CC(C)c1cc(O)cc2c1C(=O)N(COc1cc(C(F)(F)F)nn1-c1ccccc1)S2(=O)=O` [Example 9, 4-iso-ropyl-6-hydroxy-2-(1-phenyl-3-trifluoromethylpyrazol-5-yl-oxymethyl)-1,2-benzisothiazol-3(2H)-one 1,1-dioxide] showed an inhibitory constant (Ki) of 0.78 nM.
The value for `CCOC(=O)c1cc(OCN2C(=O)c3c(C(C)C)cc(OC)cc3S2(=O)=O)n(-c2ccccc2)n1` [Example 12, 4-isopropyl-6-methoxy-2-(1-phenyl-3-ethoxycarbonylpyrazol-5-yl-oxymethyl)-1,2-benzisothiazol-3(2H)-one 1,1-dioxide] was 0.077 nM; that for `CC(C)c1cc(OCc2ccc(CN(C)C)o2)cc2c1C(=O)N(COc1cc(C(F)(F)F)nn1-c1ccccc1)S2(=O)=O` [Example 13] was 0.12 nM.
Compound `COc1cc(C(C)C)c2c(c1)S(=O)(=O)N(COc1cc(C(=O)O)nn1-c1ccccc1)C2=O` [Example 21, 4-isopropyl-6-methoxy-2-[1-phenyl-3-(carboxy)pyrazol-5-yl-oxymethyl]-1,2-benzisothiazol-3(2H)-one 1,1-dioxide] came in with a Ki of 0.31 nM. Compared with the last compound, the Ki is about 2.6-fold higher.
The compound `COc1cc(C(C)C)c2c(c1)S(=O)(=O)N(COc1cc(C(F)(F)F)nn1C)C2=O` [Example 25, 4-isopropyl-6-methoxy-2-(1-methyl-3-trifluoromethylpyrazol-5-yl-oxymethyl)-1,2-benzisothiazol-3(2H)-one 1,1-dioxide] came in with a Ki of 0.1 nM.
As to `COc1cc(C(C)C)c2c(c1)S(=O)(=O)N(COc1cc(C#N)nn1-c1ccccc1)C2=O` [Example 35, 4-isopropyl-6-methoxy-2-(1-phenyl-3-cyanopyrazol-5-yl-oxymethyl)-1,2-benziso thiazol-3(2H)-one 1,1-dioxide], the Ki stood at 0.014 nM.
As for `COc1cc(C(C)C)c2c(c1)S(=O)(=O)N(COc1cc(C#N)nn1-c1ccc(Cl)cc1)C2=O` [Example 46, 4-isopropyl-6-methoxy-2-[1-(4-chlorophenyl)-3-cyanopyrazol-5-yl-oxymethyl]-1,2-benzisothiazol-3(2H)-one 1,1-dioxide], the inhibition constant Ki was 0.19 nM.
On to `CCOc1cc(OCC)c2c(c1)S(=O)(=O)N(COc1cc(C(F)(F)F)nn1-c1ccccc1)C2=O` [Example 47, 4,6-diethoxy-2-[1-phenyl-3-trifluoromethylpyrazol-5-yl-oxymethyl]-1,2-benzisothiazol-3(2H)-one 1,1-dioxide], for which the Ki was 0.5 nM. This Ki is about 2.6-fold higher than that of the compound before.
`COc1cc(C(C)C)c2c(c1)S(=O)(=O)N(COc1cc(C(F)(F)F)nn1Cc1ccccc1)C2=O` [Example 48, 4-isopropyl-6-methoxy-2-[1-benzyl-3-trifluoromethylpyrazol-5-yl-oxymethyl]-1,2-benzisothiazol-3(2H)-one 1,1-dioxide] showed a Ki of 39 nM.
